Active and inactive are the calls of the source. No rule for the calls is given here.
Target: methionyl-tRNA synthetase (Trypanosoma brucei brucei)
Test: T. brucei MetRS inhibitors, orthogonal readout, late-stage follow-up, orthogonal assay for T. brucei MetRS inhibitor project, biochemical, fluorescence polarization, dose response, round 3 (AID 1053134)
Settings: recombinant T. brucei MetRS

Row | Structure (SMILES) | IC50
1 | CCN(CC)C(=O)C(=O)c1cn(CCNc2cc(Oc3ccccc3)cc(C(F)(F)F)c2)c2ccccc12 | > 119000 nM (inactive)
2 | CCN(CC)C(=O)C(=O)c1cn(CC(=O)Nc2cc(Oc3ccccc3OC)cc(C(F)(F)F)c2)c2ccccc12 | 521 nM
3 | O=C(Cc1ccc(Nc2nc3ccc(Br)cc3[nH]2)cc1)NCCc1cccs1 | inactive
4 | Nc1c(Cl)ncnc1Nc1ccc(C(=O)O)cc1 | 8500 nM
5 | CCN(CC)C(=O)C(=O)c1cn(CC(=O)Nc2cc(Oc3ccccc3F)cc(C(F)(F)F)c2)c2ccccc12 | 381 nM
6 | CCN(CC)C(=O)C(=O)c1cn(CCNc2cccc(C(F)(F)F)c2)c2ccccc12 | > 119000 nM (inactive)
7 | CCN(CC)C(=O)C(=O)c1cn(CC(=O)Nc2cccc(C(F)(F)F)c2)c2ccccc12 | 360 nM
8 | CCN(CC)C(=O)C(=O)c1cn(CC(=O)Nc2cc(Oc3ccc(OC)cc3)cc(C(F)(F)F)c2)c2ccccc12 | 477 nM
9 | CCN(CC)C(=O)C(=O)c1cn(CC(=O)Nc2cc(Oc3ccc(F)cc3)cc(C(F)(F)F)c2)c2ccccc12 | 632 nM
10 | CCN(CC)C(=O)C(=O)c1cn(CC(=O)Nc2cc(Oc3ccccc3)cc(C(F)(F)F)c2)c2ccccc12 | 145 nM
11 | CCN(CC)C(=O)Cc1cn(CC(=O)Nc2cccc(C(F)(F)F)c2)c2ccccc12 | > 119000 nM (inactive)
12 | O=C(Cn1cc(C(=O)C(=O)NCc2ccccc2)c2ccccc21)Nc1cc(Oc2ccccc2)cc(C(F)(F)F)c1 | inactive
